ChEMBL document CHEMBL1201862, “PubChem BioAssay data set” (2004)
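48-hour exposure; five concentrations; linearly interpolated endpoints. GI50 is the concentration that inhibits growth by half.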 Activity calls are given as the source filed them. No stated cut-off is given here; in the data, active = GI50 up to about 1.1 µM and inactive = higher.

Experiments:
Test in all cases: inhibition of tumour cell growth, NCI panel, 48 h
[1] = system: DU-145
[2] = system: HCC 2998
[3] = system: HOP-62
[4] = system: HT-29
[5] = system: Hs-578T
[6] = system: KM12
[7] = system: MOLT-4
[8] = system: NCI-H460
[9] = system: OVCAR-4
[10] = system: OVCAR-5
[11] = system: OVCAR-8
[12] = system: RPMI-8226
[13] = system: SF-295
[14] = system: SK-MEL-2
[15] = system: SK-MEL-5
[16] = system: SN12C
[17] = system: SNB-19
[18] = system: SR
[19] = system: T47D
[20] = system: TK-10

Measured: GI50

O=S(=O)(O)c1ccc2c(/N=N/c3ccc(S(=O)(=O)O)c4ccccc34)c(O)c(S(=O)(=O)O)cc2c1
inactive: [1] > 100 µM | [2] > 100 µM | [3] > 100 µM | [4] > 100 µM | [5] > 100 µM | [6] > 100 µM | [7] > 100 µM | [8] > 100 µM | [9] > 100 µM | [10] > 100 µM | [11] > 100 µM | [12] > 100 µM | [13] > 100 µM | [14] > 100 µM | [15] > 100 µM | [16] > 100 µM | [17] > 100 µM | [18] > 100 µM | [19] > 100 µM | [20] > 100 µM

CN1C(=O)c2ccccc2NC(=O)C12O[C@@H]2c1ccccc1 (stereo not given in full)
inactive: [1] > 100 µM | [2] > 100 µM | [3] > 100 µM | [4] > 100 µM | [5] > 100 µM | [6] > 100 µM | [7] > 100 µM | [8] > 100 µM | [9] > 100 µM | [10] > 100 µM | [11] > 100 µM | [12] > 100 µM | [13] > 100 µM | [14] > 100 µM | [15] > 100 µM | [16] > 100 µM | [17] > 10 µM | [18] > 100 µM | [19] > 100 µM | [20] > 100 µM

CN(C)CCNc1ccc(CO)c2oc3ccc(O)cc3c(=O)c12
inactive: [1] 20.1 µM | [2] 14 µM | [3] 10.3 µM | [4] 11.3 µM | [5] 14 µM | [6] 14.4 µM | [7] 2.47 µM | [8] 4.24 µM | [9] 13.8 µM | [10] 16.8 µM | [11] 7.14 µM | [12] 12.3 µM | [13] 14.2 µM | [14] 16.6 µM | [15] 14.2 µM | [16] 12.9 µM | [17] 17.1 µM | [18] 1.14 µM | [19] 13.3 µM | [20] 17.1 µM

N#Cc1c(N)nc(SCc2ccccc2)c(C#N)c1-c1ccc(O)cc1
inactive: [1] 13.5 µM | [2] > 38.5 µM | [3] 15.2 µM | [4] 8.22 µM | [5] 29.2 µM | [6] 11 µM | [7] 5.53 µM | [8] 25.8 µM | [9] 10.3 µM | [10] 16.4 µM | [11] 15 µM | [12] 5.24 µM | [13] 13.6 µM | [14] 15.2 µM | [15] 11.7 µM | [16] 13.8 µM | [17] 17.3 µM | [18] 10.9 µM | [19] 5.96 µM | [20] > 41.8 µM

CCCCCCCCCCCC(=O)N(CCCCCCCCCCC(=O)O)CC(O)C(O)C(OC1OC(CO)C(O)C(O)C1O)C(O)CO (stereo not given)
inactive: [1] > 100 µM | [2] > 100 µM | [3] > 100 µM | [4] > 100 µM | [5] > 100 µM | [6] > 100 µM | [7] > 100 µM | [8] > 100 µM | [9] > 100 µM | [10] > 100 µM | [11] > 100 µM | [12] 50.7 µM | [13] > 100 µM | [14] > 100 µM | [15] > 100 µM | [16] > 100 µM | [17] > 100 µM | [18] > 100 µM | [19] > 100 µM | [20] > 100 µM
